Reference: paper PMC4177084 (Journal of Thyroid Research, 2014)

Key:
KIT(V560G) = biological target: T1, KIT(V560G) (Homo sapiens, UniProt P10721, V560G); assay: Cell free kinase inhibition assay; format: biochemical
T1 construct: purchased Carna Biosciences, Inc. (Kobe, Japan)

PDGFRα = biological target: T2, PDGFRα (Homo sapiens, UniProt P16234); assay: Cell free kinase inhibition assay; format: biochemical
T2 construct: purchased Carna Biosciences, Inc. (Kobe, Japan)

FGFR3 = biological target: T3, FGFR3 (Homo sapiens, UniProt P22607); assay: Cell free kinase inhibition assay; format: biochemical
T3 construct: purchased Carna Biosciences, Inc. (Kobe, Japan)
T3 sequence (P22607 23-806): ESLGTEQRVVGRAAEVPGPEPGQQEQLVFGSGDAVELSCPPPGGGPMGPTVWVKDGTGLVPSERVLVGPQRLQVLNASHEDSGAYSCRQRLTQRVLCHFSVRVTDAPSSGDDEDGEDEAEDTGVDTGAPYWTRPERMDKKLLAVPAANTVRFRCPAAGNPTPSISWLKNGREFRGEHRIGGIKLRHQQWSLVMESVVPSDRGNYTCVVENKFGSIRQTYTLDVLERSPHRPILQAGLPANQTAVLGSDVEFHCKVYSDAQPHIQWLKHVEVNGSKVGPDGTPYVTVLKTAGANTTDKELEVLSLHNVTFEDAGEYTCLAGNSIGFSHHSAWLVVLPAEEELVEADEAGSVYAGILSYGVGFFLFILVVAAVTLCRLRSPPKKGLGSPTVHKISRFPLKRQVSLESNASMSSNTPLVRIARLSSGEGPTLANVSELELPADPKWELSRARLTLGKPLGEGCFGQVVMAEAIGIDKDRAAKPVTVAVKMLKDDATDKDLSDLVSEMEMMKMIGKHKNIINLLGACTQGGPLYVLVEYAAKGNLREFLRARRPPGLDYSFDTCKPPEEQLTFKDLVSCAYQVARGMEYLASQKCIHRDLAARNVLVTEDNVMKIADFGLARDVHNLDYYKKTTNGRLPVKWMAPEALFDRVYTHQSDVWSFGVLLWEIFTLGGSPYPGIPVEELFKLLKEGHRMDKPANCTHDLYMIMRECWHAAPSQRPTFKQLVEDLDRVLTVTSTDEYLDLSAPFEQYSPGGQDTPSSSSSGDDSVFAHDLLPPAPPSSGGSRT

FGFR1 = biological target: T4, FGFR1 (Homo sapiens, UniProt P11362); assay: Cell free kinase inhibition assay; format: biochemical
T4 construct: purchased Carna Biosciences, Inc. (Kobe, Japan)

LCK = biological target: T5, LCK (Homo sapiens, UniProt P06239); assay: Cell free kinase inhibition assay; format: biochemical
T5 construct: purchased Carna Biosciences, Inc. (Kobe, Japan)

FRK = biological target: T6, FRK (Homo sapiens, UniProt P42685); assay: Cell free kinase inhibition assay; format: biochemical
T6 construct: purchased Carna Biosciences, Inc. (Kobe, Japan)
T6 sequence (P42685 whole entry): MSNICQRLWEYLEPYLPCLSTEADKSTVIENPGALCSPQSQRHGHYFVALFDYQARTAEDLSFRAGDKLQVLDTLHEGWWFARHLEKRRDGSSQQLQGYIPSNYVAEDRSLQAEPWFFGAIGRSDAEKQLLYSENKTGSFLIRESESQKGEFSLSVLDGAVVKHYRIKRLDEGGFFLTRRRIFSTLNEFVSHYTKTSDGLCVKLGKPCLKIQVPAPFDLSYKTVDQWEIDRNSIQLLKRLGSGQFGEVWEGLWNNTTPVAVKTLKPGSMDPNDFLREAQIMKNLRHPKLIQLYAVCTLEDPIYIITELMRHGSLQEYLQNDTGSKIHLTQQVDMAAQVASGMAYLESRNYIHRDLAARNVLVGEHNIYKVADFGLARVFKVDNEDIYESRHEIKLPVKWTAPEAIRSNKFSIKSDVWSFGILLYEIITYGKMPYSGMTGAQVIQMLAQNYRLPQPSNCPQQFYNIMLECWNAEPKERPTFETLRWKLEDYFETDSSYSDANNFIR

FGFR3(K650M) = biological target: T7, FGFR3(K650M) (Homo sapiens, UniProt P22607, K650M); assay: Cell free kinase inhibition assay; format: biochemical
T7 construct: purchased Carna Biosciences, Inc. (Kobe, Japan)
T7 sequence (P22607 23-806 K650M): as the sequence (P22607 23-806) above, with K628M counted along it

EPHB4 = biological target: T8, EPHB4 (Homo sapiens, UniProt P54760); assay: Cell free kinase inhibition assay; format: biochemical
T8 construct: purchased Carna Biosciences, Inc. (Kobe, Japan)
T8 sequence (P54760 16-987): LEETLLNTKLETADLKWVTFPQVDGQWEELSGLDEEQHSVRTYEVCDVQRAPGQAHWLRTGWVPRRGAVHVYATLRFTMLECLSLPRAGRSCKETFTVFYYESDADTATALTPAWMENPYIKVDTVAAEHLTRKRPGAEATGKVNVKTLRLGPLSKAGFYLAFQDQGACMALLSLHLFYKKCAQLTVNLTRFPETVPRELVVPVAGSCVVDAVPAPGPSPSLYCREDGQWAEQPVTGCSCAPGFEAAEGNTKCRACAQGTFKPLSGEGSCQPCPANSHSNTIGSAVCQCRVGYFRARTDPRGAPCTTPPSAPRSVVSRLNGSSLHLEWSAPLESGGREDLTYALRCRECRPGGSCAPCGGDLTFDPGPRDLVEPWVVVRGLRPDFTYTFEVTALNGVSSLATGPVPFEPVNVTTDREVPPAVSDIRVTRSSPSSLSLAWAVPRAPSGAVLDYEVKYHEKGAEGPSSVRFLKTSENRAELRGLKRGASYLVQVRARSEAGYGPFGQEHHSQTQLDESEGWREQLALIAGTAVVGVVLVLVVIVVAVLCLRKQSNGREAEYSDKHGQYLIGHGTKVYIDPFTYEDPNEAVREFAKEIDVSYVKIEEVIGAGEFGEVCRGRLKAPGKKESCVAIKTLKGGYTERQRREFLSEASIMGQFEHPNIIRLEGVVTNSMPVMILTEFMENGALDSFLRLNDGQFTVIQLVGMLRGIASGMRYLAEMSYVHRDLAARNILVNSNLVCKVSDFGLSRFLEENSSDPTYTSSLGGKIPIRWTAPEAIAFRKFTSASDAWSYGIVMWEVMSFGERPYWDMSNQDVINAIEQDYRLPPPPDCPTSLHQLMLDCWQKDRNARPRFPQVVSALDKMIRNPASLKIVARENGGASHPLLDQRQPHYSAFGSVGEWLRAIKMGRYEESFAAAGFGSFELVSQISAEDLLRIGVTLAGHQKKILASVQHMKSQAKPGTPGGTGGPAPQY

SYK = biological target: T9, SYK (Homo sapiens, UniProt P43405); assay: Cell free kinase inhibition assay; format: biochemical
T9 construct: purchased Carna Biosciences, Inc. (Kobe, Japan)

EPHB3 = biological target: T10, EPHB3 (Homo sapiens, UniProt P54753); assay: Cell free kinase inhibition assay; format: biochemical
T10 construct: purchased Carna Biosciences, Inc. (Kobe, Japan)
T10 sequence (P54753 34-998): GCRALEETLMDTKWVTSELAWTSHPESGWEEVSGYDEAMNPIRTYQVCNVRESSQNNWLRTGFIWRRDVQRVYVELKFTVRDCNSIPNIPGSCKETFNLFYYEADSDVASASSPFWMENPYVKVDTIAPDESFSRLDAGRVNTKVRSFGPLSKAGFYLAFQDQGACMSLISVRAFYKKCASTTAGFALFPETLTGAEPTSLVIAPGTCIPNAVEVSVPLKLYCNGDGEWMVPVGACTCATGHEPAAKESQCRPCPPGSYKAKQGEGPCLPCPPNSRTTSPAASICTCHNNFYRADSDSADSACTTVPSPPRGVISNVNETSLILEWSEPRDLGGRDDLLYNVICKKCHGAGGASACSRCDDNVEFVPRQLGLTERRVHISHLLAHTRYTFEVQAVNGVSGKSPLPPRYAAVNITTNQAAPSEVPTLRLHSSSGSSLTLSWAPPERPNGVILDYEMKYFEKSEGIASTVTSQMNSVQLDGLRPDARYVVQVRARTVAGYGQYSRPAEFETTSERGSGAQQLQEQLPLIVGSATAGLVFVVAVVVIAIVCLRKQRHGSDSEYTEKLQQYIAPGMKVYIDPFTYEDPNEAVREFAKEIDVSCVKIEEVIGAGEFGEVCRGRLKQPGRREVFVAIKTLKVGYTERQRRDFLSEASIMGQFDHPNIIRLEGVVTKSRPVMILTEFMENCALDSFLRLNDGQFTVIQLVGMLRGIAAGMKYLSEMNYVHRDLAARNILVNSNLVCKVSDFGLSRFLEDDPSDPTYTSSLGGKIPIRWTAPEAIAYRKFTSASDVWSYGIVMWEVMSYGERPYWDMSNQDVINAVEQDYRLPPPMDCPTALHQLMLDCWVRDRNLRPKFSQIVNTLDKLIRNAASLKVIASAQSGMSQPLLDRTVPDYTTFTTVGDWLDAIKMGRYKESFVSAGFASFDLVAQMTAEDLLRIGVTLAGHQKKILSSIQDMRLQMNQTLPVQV

IGF1R = biological target: T11, IGF1R (Homo sapiens, UniProt P08069); assay: Cell free kinase inhibition assay; format: biochemical
T11 construct: purchased Carna Biosciences, Inc. (Kobe, Japan)

CDK2/CycE1 = biological target: T12, CDK2/CycE1 (Homo sapiens, UniProt P24941); assay: Cell free kinase inhibition assay; format: biochemical
T12 construct: purchased Carna Biosciences, Inc. (Kobe, Japan)

CDK6 = biological target: T13, CDK6 (Homo sapiens, UniProt Q00534); assay: Cell free kinase inhibition assay; format: biochemical
T13 construct: purchased Carna Biosciences, Inc. (Kobe, Japan)
T13 sequence (Q00534 whole entry): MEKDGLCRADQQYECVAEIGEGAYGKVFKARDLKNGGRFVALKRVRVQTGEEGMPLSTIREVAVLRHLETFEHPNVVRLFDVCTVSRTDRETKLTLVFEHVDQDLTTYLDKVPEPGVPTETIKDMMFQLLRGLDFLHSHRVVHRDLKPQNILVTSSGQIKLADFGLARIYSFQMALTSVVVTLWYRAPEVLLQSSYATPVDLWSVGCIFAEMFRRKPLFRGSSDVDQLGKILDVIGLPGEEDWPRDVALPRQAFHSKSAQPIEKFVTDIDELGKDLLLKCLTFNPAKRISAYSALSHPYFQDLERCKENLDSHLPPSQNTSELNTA
T13 sequence (P30281 whole entry partner): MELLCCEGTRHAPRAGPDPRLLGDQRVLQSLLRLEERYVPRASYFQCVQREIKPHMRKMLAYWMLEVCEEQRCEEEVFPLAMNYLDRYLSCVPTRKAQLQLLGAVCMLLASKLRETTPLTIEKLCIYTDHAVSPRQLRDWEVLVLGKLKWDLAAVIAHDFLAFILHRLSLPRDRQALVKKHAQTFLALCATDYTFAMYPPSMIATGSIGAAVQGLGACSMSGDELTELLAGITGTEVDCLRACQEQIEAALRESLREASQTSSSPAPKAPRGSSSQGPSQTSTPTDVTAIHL

COT = biological target: T14, COT (Homo sapiens, UniProt P41279); assay: Cell free kinase inhibition assay; format: biochemical
T14 construct: purchased Carna Biosciences, Inc. (Kobe, Japan)
T14 sequence (P41279 whole entry): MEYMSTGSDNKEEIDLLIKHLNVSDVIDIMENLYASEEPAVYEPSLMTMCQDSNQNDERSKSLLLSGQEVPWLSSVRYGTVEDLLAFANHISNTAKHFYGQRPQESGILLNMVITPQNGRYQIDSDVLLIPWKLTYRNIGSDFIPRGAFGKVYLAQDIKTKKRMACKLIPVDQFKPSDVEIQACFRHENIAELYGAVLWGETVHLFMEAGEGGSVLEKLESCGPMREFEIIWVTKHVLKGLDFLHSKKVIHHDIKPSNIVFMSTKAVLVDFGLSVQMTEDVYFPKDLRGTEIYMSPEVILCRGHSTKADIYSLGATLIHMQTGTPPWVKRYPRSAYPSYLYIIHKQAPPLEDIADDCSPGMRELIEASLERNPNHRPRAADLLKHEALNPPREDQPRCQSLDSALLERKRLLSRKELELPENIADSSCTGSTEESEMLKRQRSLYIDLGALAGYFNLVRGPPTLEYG
Procedure: […]. Briefly, each test compound was mixed with enzyme, substrate, ATP, and Mg under appropriate buffer conditions for the ELISA or MSA. […] IC50 values (the half maximal inhibitory concentration) were calculated from concentrations versus % inhibition curves.

GSK3β = biological target: T15, GSK3β (Homo sapiens, UniProt P49841); assay: Cell free kinase inhibition assay; format: biochemical
T15 construct: purchased Carna Biosciences, Inc. (Kobe, Japan)
T15 sequence (P49841 whole entry): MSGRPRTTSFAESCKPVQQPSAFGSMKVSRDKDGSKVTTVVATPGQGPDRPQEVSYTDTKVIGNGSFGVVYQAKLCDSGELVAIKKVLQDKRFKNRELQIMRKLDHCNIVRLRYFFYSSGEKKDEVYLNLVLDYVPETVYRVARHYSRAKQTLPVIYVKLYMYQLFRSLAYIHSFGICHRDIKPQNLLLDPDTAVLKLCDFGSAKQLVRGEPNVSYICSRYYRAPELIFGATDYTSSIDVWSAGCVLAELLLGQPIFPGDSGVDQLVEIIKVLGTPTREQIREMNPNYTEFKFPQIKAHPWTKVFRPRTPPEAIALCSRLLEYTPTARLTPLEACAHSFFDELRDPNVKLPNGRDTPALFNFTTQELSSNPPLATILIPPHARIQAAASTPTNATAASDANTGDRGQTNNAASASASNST

MLK1 = biological target: T16, MLK1 (Homo sapiens, UniProt P80192); assay: Cell free kinase inhibition assay; format: biochemical
T16 construct: purchased Carna Biosciences, Inc. (Kobe, Japan)

NEK2 = biological target: T17, NEK2 (Homo sapiens, UniProt P51955); assay: Cell free kinase inhibition assay; format: biochemical
T17 construct: purchased Carna Biosciences, Inc. (Kobe, Japan)

p70S6K = biological target: T18, p70S6K (Homo sapiens, UniProt P23443); assay: Cell free kinase inhibition assay; format: biochemical
T18 construct: purchased Carna Biosciences, Inc. (Kobe, Japan)

PRKX = biological target: T19, PRKX (Homo sapiens, UniProt P51817); assay: Cell free kinase inhibition assay; format: biochemical
T19 construct: purchased Carna Biosciences, Inc. (Kobe, Japan)

WEE1 = biological target: T20, WEE1 (Homo sapiens, UniProt P30291); assay: Cell free kinase inhibition assay; format: biochemical
T20 construct: purchased Carna Biosciences, Inc. (Kobe, Japan)

Nthy-ori 3-1 cells = assay: Antiproliferation assay (WST-8); format: cell-based, human; conditions: Homo sapiens, 72 h; Nthy-ori 3-1 (normal thyroid), antiproliferative, 3 days
FTC-133 cells = assay: Antiproliferation assay (WST-8); format: cell-based, human; conditions: Homo sapiens, 72 h; FTC-133 (DTC), antiproliferative, 3 days
FTC-236 cells = assay: Antiproliferation assay (WST-8); format: cell-based, human; conditions: Homo sapiens, 72 h; FTC-236 (DTC), antiproliferative, 3 days; read-out: IC50
HTC/C3 cells = assay: Antiproliferation assay (WST-8); format: cell-based; conditions: Homo sapiens, 72 h; HTC/C3 (ATC), antiproliferative, 3 days
FRS2 = assay: Western blot of FRS2 phosphorylation in RO82-W-1 xenografts; format: in vivo, nude mice; conditions: 2 h after single oral 3, 10, 30, or 100 mg/kg
RO82-W-1 xenograft = assay: Human thyroid cancer xenograft model, tumor growth; format: in vivo, nude mice
Procedure: Nude mice (CAnN.Cg-Foxn1nu/CrlCrlj, female, 5-6 weeks old) were obtained from Charles River Laboratories Japan (Kanagawa, Japan). Mice were maintained under specific pathogen-free conditions and housed in barrier facilities on a 12 h light/dark cycle, with food and water ad libitum. All procedures using laboratory animals were done in accordance with all applicable institutional and government regulatory guidelines and policies and were performed in an animal facility accredited by the Center for Accreditation of Laboratory Animal Care of the Japan Health Sciences Foundation.
Tumor cells were cultured in appropriate culture mediums. Cells were harvested with 0.05% or 0.25% (w/v) trypsin/EDTA and suspended with 50% (v/v) BD Matrigel (BD Biosciences, San Jose, CA) in the mixture of culture mediums at a density of 5–10 × 10^7 cells/mL. Then, 0.1-0.2 mL of the cell suspension was inoculated subcutaneously into the right flank region of each mouse. […] The tumor size was measured in two dimensions by using a caliper, and the volume was calculated by using the formula: tumor volume (mm^3) = 1/2 length (mm) × [width (mm)]^2. The change in tumor volume in the treated group relative to that in the control group was calculated according to the following formula: ΔT/C = (ΔT/ΔC) × 100%, where ΔT and ΔC are the change in tumor volume (i.e., growth) for the treated and vehicle control group, respectively. The percentage of tumor growth inhibition (%TGI) was calculated from the formula: [(1 − ΔT/ΔC) × 100].
Supplementary Fig. S7 Comparison of antitumor activity with antiangiogenesis activity in human differentiated thyroid cancer RO82-W-1 xenografts in nude mice.
Nude mice bearing RO82-W-1 xenografts […]
when tumor volumes reached about 200 mm3 (day 1). The tumor volume was measured on day 22. Each group consisted of 6 mice. Data are shown as means ± SD. * P < 0.05 compared with vehicle-treated mice.
(b) The percentage of tumor growth inhibition (%TGI). Each group consisted of 6 mice. Antitumor activity was calculated as %TGI at day 22. Data are shown as means ± SD. * P < 0.05 compared […]
analyze the relationship between antitumor activity (%TGI) and antiangiogenesis activity (percentage of […]
sorafenib-treated groups were plotted on the X- and Y-axes, respectively. %TGI and %MVI was determined as described in Materials and Methods. Analysis of covariance (ANCOVA) for %TGI was examined by using %MVI as a covariate (P<0.05)

[1] = tested on: CCDC-RET, human DTC TPC1 cell lines; conditions: cited from earlier work

Q: For `COc1cc2nccc(Oc3ccc(NC(=O)NC4CC4)c(Cl)c3)c2cc1C(N)=O` [Lenvatinib, Lenvatinib mesilate], which IC50 (KIT(V560G)) is on record?
A: 0.74 nM

Q: And the IC50 (PDGFRα)?
A: 29 nM

Q: And the IC50 (FGFR3)?
A: 52 nM

Q: What about the IC50 (FGFR1) of the same compound?
A: 61 nM

Q: And the IC50 (LCK)?
A: 130 nM

Q: And the IC50 (FRK)?
A: 160 nM

Q: And the IC50 (FGFR3(K650M))?
A: 250 nM

Q: What about the IC50 (EPHB4) of the same compound?
A: 4.6 µM

Q: What about the IC50 (SYK) of the same compound?
A: 8.7 µM

Q: What about the IC50 (EPHB3) of the same compound?
A: > 10 µM

Q: What about the IC50 (IGF1R) of the same compound?
A: > 10 µM

Q: And the IC50 (CDK2/CycE1)?
A: > 10 µM

Q: And the IC50 (CDK6)?
A: > 10 µM

Q: And the IC50 (COT)?
A: > 10 µM

Q: What about the IC50 (GSK3β) of the same compound?
A: > 10 µM

Q: What about the IC50 (MLK1) of the same compound?
A: > 10 µM

Q: What about the IC50 (NEK2) of the same compound?
A: > 10 µM

Q: And the IC50 (p70S6K)?
A: > 10 µM

Q: What about the IC50 (PRKX) of the same compound?
A: > 10 µM

Q: And the IC50 (WEE1)?
A: > 10 µM

Q: What about the IC50 (Nthy-ori 3-1 cells) of the same compound?
A: 15 µM

Q: And the IC50 (FTC-133 cells)?
A: 24 µM

Q: What about the IC50 (FTC-236 cells) of the same compound?
A: 17 µM

Q: What about the IC50 (HTC/C3 cells) of the same compound?
A: 28 µM

Q: What about the “phosphorylation of FRS2” value (FRS2) of the same compound?
A: decreased

Q: And the antitumor activity (RO82-W-1 xenograft; RO82-W-1 xenograft, 1, 3, and 10 mg/kg oral once daily 14 days)?
A: significant antitumor activity

Q: What about the “antitumor activity compared with sorafenib (300 mg/kg)” value (RO82-W-1 xenograft; RO82-W-1 xenografts, 100 mg/kg oral once daily 21 days, %TGI day 22) of the same compound?
A: significant potent antitumor activity

Q: What about the “antitumor activity (%TGI) normalized for angiogenesis inhibition (%MVI), versus sorafenib” value (RO82-W-1 xenograft; RO82-W-1 xenografts, ANCOVA) of the same compound?
A: stronger antitumor activity

Q: What about the “phosphorylation of CCDC-RET, in vitro proliferation and in vivo tumor growth of TPC1” value [1] of the same compound?
A: inhibits
